Assay results as given in PMC6934184, “Selective DNA-PKcs inhibition extends the therapeutic index of localized radiotherapy and chemotherapy” (The Journal of Clinical Investigation, 2019).

Target: T1, EPHB2 (Homo sapiens, UniProt P29323)
T1 construct: purchased Thermo Fisher Scientific (Life Technologies) SelectScreen
Assay: SelectScreen Z'LYTE
Format: biochemical
Summary of the method: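 NU5455 was profiled across the SelectScreen Broad panel of kinase activity and binding assays. Z'LYTE reactions such as CSF1R ran at apparent Km ATP, while the Adapta CAMK1 assay used ATP listed as 10. Values are given as percent.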

T1 sequence (P29323 19-1055): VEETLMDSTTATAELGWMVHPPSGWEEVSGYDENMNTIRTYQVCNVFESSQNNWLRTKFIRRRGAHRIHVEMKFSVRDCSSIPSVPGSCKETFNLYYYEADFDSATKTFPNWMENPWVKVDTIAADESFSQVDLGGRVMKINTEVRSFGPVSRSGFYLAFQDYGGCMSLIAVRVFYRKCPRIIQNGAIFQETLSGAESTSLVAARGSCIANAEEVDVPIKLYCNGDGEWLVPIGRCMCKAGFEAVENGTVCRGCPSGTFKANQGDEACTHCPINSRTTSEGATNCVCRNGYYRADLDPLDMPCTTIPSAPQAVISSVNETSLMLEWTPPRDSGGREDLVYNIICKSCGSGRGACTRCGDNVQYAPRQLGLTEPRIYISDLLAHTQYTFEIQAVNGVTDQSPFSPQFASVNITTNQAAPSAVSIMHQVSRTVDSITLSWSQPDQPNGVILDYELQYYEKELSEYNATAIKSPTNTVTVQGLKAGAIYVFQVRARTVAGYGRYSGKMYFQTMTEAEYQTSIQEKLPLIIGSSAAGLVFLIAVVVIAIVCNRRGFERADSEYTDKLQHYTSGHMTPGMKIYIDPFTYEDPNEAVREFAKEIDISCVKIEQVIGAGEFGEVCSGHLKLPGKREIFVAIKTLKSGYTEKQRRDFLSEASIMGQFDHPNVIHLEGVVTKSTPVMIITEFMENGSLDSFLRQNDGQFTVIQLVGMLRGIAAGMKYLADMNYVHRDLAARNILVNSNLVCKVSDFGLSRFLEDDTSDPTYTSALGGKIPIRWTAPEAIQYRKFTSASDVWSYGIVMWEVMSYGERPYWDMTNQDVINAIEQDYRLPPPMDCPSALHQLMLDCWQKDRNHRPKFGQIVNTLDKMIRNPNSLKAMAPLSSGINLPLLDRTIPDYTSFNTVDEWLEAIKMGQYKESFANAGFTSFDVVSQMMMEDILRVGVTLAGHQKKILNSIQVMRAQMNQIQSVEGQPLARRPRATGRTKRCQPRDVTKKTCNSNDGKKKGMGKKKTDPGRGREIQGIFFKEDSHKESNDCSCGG

CN(C(=O)CN1CCOCC1)c1ccc2sc3c(-c4cccc5c(=O)cc(N6CC7CCC(C6)O7)oc45)cccc3c2c1 [NU5455]
inhibition at 1 µM: -0.1%
